Source: patent US20060046976A1, “Method for increasing the bone mineral density and bone micro-architecture or connectivity of a mammal using N-acylated glucosamines” (priority 2004, published 2006)

System: SCW-arthritis rats
Test: Two-dimensional subchondral bone analysis (structure, connectivity/strut analysis, plate thickness) of proximal tibia, SCW-arthritis rats
Assay type: in vivo, Lewis type rats
Conditions: for 2D-Tb.N Mean ± SEM / 2D-Tb.Th % loss / 2D-Tb.Th Mean ± SEM / End Points % loss / End Points Mean ± SEM / Multiple points % loss / Multiple points Mean ± SEM / Node-node struts % loss / Node-node struts Mean ± SEM / Total Strut length % loss / Total Strut length Mean ± SEM / 2D-BV/TV % loss / 2D-BV/TV Mean ± SEM / 2D-Tb.N % loss: SCW + 200 mg

`CCCC(=O)N[C@H]1C(O)O[C@H](CO)[C@@H](O)[C@@H]1O` (stereo partly drawn) [GlcNBu, N-butyryl-D-glucosamine] was tested, and the “2D-Tb.N Mean ± SEM” value (Anterior/lateral) was 6.0 ± 0.7 /mm, the 2D-Tb.Th % loss (Anterior/lateral) was 30% and the “2D-Tb.Th Mean ± SEM” value (Anterior/lateral) was 39.7 ± 2.9 um. The “End Points % loss” value (Anterior/lateral) was −120%, the “End Points Mean ± SEM” value (Anterior/lateral) was 34.1 ± 4.1 1/mm2 and the “Multiple points % loss” value (Anterior/lateral) was 37%. The “Multiple points Mean ± SEM” value (Anterior/lateral) was 10.3 ± 2.7 1/mm2, the “Node-node struts % loss” value (Anterior/lateral) was 64% and the “Node-node struts Mean ± SEM” value (Anterior/lateral) was 1.2 ± 0.4 mm/mm2. The “Total Strut length % loss” value (Anterior/lateral) was 28%, the “Total Strut length Mean ± SEM” value (Anterior/lateral) was 5.4 ± 0.7 mm/mm2 and the 2D-BV/TV % loss (Anterior/medial) was 31%. The “2D-BV/TV Mean ± SEM” value (Anterior/medial) was 27.8 ± 2.7%, the 2D-Tb.N % loss (Anterior/medial) was 10% and the “2D-Tb.N Mean ± SEM” value (Anterior/medial) was 5.7 ± 0.6 /mm. The 2D-Tb.Th % loss (Anterior/medial) was 28%, the “2D-Tb.Th Mean ± SEM” value (Anterior/medial) was 49.5 ± 4.3 um and the “End Points % loss” value (Anterior/medial) was −99%. The “End Points Mean ± SEM” value (Anterior/medial) was 26.7 ± 5.7 1/mm2, the “Multiple points % loss” value (Anterior/medial) was 32% and the “Multiple points Mean ± SEM” value (Anterior/medial) was 10.7 ± 1.7 1/mm2. The “Node-node struts % loss” value (Anterior/medial) was 45%, the “Node-node struts Mean ± SEM” value (Anterior/medial) was 1.3 ± 0.3 mm/mm2 and the “Total Strut length % loss” value (Anterior/medial) was 15%. The “Total Strut length Mean ± SEM” value (Anterior/medial) was 5.1 ± 0.5 mm/mm2, the 2D-BV/TV % loss (Middle section/lateral) was 15% and the “2D-BV/TV Mean ± SEM” value (Middle section/lateral) was 24.1 ± 2.1%. For the same molecule, the 2D-Tb.N % loss (Middle section/lateral) was 0%, the “2D-Tb.N Mean ± SEM” value (Middle section/lateral) was 4.7 ± 0.3 /mm and the 2D-Tb.Th % loss (Middle section/lateral) was 16%. The “2D-Tb.Th Mean ± SEM” value (Middle section/lateral) was 51.3 ± 2.8 um, the “End Points % loss” value (Middle section/lateral) was −92% and the “End Points Mean ± SEM” value (Middle section/lateral) was 19.8 ± 1.7 1/mm2. The “Multiple points % loss” value (Middle section/lateral) was 2%, the “Multiple points Mean ± SEM” value (Middle section/lateral) was 9.5 ± 1.9 1/mm2 and the “Node-node struts % loss” value (Middle section/lateral) was 15%. The “Node-node struts Mean ± SEM” value (Middle section/lateral) was 0.9 ± 0.2 mm/mm2, the “Total Strut length % loss” value (Middle section/lateral) was 9% and the “Total Strut length Mean ± SEM” value (Middle section/lateral) was 4.2 ± 0.2 mm/mm2. The 2D-BV/TV % loss (Middle section/medial) was 17%, the “2D-BV/TV Mean ± SEM” value (Middle section/medial) was 35.1 ± 4.1% and the 2D-Tb.N % loss (Middle section/medial) was −9%. For the same molecule, the “2D-Tb.N Mean ± SEM” value (Middle section/medial) was 5.1 ± 0.2 /mm, the 2D-Tb.Th % loss (Middle section/medial) was 24% and the “2D-Tb.Th Mean ± SEM” value (Middle section/medial) was 68.5 ± 6.3 um. For the same molecule, the “End Points % loss” value (Middle section/medial) was −145%, the “End Points Mean ± SEM” value (Middle section/medial) was 12.2 ± 2.1 1/mm2 and the “Multiple points % loss” value (Middle section/medial) was −11%. The “Multiple points Mean ± SEM” value (Middle section/medial) was 12.6 ± 1.8 1/mm2, the “Node-node struts % loss” value (Middle section/medial) was 4% and the “Node-node struts Mean ± SEM” value (Middle section/medial) was 2.0 ± 0.3 mm/mm2. The “Total Strut length % loss” value (Middle section/medial) was −2%, the “Total Strut length Mean ± SEM” value (Middle section/medial) was 4.9 ± 0.3 mm/mm2 and the 2D-BV/TV % loss (Posterior/lateral) was 27%. For the same molecule, the “2D-BV/TV Mean ± SEM” value (Posterior/lateral) was 23.2 ± 1.0%, the 2D-Tb.N % loss (Posterior/lateral) was 13% and the “2D-Tb.N Mean ± SEM” value (Posterior/lateral) was 4.5 ± 0.2 /mm. The 2D-Tb.Th % loss (Posterior/lateral) was 22%, the “2D-Tb.Th Mean ± SEM” value (Posterior/lateral) was 49.8 ± 1.7 um and the “End Points % loss” value (Posterior/lateral) was −114%. For the same molecule, the “End Points Mean ± SEM” value (Posterior/lateral) was 21.4 ± 1.7 1/mm2, the “Multiple points % loss” value (Posterior/lateral) was 59% and the “Multiple points Mean ± SEM” value (Posterior/lateral) was 7.1 ± 0.7 1/mm2. For the same molecule, the “Node-node struts % loss” value (Posterior/lateral) was 46%, the “Node-node struts Mean ± SEM” value (Posterior/lateral) was 0.7 ± 0.1 mm/mm2 and the “Total Strut length % loss” value (Posterior/lateral) was 16%. The “Total Strut length Mean ± SEM” value (Posterior/lateral) was 4.0 ± 0.2 mm/mm2, the 2D-BV/TV % loss (Posterior/medial) was 21% and the “2D-BV/TV Mean ± SEM” value (Posterior/medial) was 35.9 ± 2.2%. The 2D-Tb.N % loss (Posterior/medial) was 5%, the “2D-Tb.N Mean ± SEM” value (Posterior/medial) was 6.1 ± 0.2 /mm and the 2D-Tb.Th % loss (Posterior/medial) was 21%. The “2D-Tb.Th Mean ± SEM” value (Posterior/medial) was 61.0 ± 3.6 um, the “End Points % loss” value (Posterior/medial) was −233% and the “End Points Mean ± SEM” value (Posterior/medial) was 17.1 ± 1.8 1/mm2. The “Multiple points % loss” value (Posterior/medial) was 29%, the “Multiple points Mean ± SEM” value (Posterior/medial) was 13.9 ± 1.8 1/mm2 and the “Node-node struts % loss” value (Posterior/medial) was 23%. For the same molecule, the “Node-node struts Mean ± SEM” value (Posterior/medial) was 2.1 ± 0.3 mm/mm2, the “Total Strut length % loss” value (Posterior/medial) was 12% and the “Total Strut length Mean ± SEM” value (Posterior/medial) was 5.6 ± 0.3 mm/mm2. For the same molecule, the “Subchondral Plate Thickness” value (SCW + GlcNBu High, lateral epiphysis of proximal tibia) was 0.11 ± 0.04 mm, the “Subchondral Plate Thickness” value (SCW + GlcNBu High, medial epiphysis of proximal tibia) was 0.07 ± 0.04 mm and the “Subchondral Plate Thickness” value (SCW + GlcNBu Low, lateral epiphysis of proximal tibia) was 0.10 ± 0.04 mm. For the same molecule, the “Subchondral Plate Thickness” value (SCW + GlcNBu Low, medial epiphysis of proximal tibia) was 0.07 ± 0.03 mm, the “decrease of Subchondral Plate Thickness in arthritis” value (SCW-arthritis rats, GlcNBu treatment, especially high dose) was “minimized by GlcNBu treatment” and the bone connectivity (SCW-arthritis rats, low and high dose GlcNBu) was “dose-dependent increase in bone connectivity”. The “length of node-to-node struts, untreated arthritis-induced group to high dose group” value (medial side of the proximal epiphysis, high dose, p=0.034) was “significant increase”.
